Data on 30 compounds can be found in patent publication US4863904A, “Dipeptides as renin inhibitors” (priority 1984, dated 1989).

pIC50: −log10 of the molar value.

One experiment addresses T1, human renin (Homo sapiens, UniProt P00797).
T1 sequence (P00797 67-406): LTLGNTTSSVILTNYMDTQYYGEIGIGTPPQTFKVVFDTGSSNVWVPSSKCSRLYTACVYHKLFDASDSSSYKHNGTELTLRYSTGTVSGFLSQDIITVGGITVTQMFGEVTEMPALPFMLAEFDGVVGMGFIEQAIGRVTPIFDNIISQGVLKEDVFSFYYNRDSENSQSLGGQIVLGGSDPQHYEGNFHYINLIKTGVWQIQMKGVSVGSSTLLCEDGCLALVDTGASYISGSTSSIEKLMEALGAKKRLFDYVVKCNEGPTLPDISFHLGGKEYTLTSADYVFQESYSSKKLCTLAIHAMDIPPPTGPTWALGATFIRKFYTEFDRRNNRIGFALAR
Briefly: Human renin-sheep renin substrate reaction system in vitro. In kind it is biochemical. The conditions noted are these: IC50 (molar concentration), purified human renin, semipurified sheep renin substrate, pH 7.4, 37° C., 15 minutes; angiotensin I by radioimmunoassay. As to the method:
The mixture was incubated for 15 minutes on a water bath at 37° C., and the reaction mixture was allowed to stand for 5 minutes on a water bath at 100° C. to stop the reaction. After cooling, 200 μl of the solution was taken up and the amount of angiotensin I produced by the addition of renin was determined by radioimmunoassay. The inhibitory effect was calculated by the following equation. [formula]
As a control, the same procedure as above was carried out by using 50 μl of dimethyl sulfoxide alone in place of the 50 μl of dimethyl sulfoxide solution containing a dipeptide of the present invention.
In the case of `CC(C)C[C@@H](CO)NC(=O)[C@H](Cc1c[nH]cn1)NC(=O)C(CCCCc1ccccc1)Cc1cccc2ccccc12` (mixture of isomers) [N-[(±)-2-(1-Naphthylmethyl)-6-phenylhexanoyl]-L-histidyl-L-leucinol], the pIC50 is 5.27. As for `CC(C)C[C@@H](CO)NC(=O)[C@H](Cc1c[nH]cn1)NC(=O)C(CCCC(=O)c1ccccc1)Cc1cccc2ccccc12` (mixture of isomers), the pIC50 was 4.89. Regarding `CC(C)C[C@@H](CO)NC(=O)[C@H](Cc1c[nH]cn1)NC(=O)C(CCOCCc1ccccc1)Cc1cccc2ccccc12` (mixture of isomers) [N-[(±)-2-(1-Naphthylmethyl)-4-phenethoxybutyryl]-L-histidyl-L-leucinol], the pIC50 was 4.82.

The same experiment, now with this note: purified human renin, semipurified sheep renin substrate, pH 7.4, 37° C., 15 minutes; angiotensin I by radioimmunoassay; read-out: IC50 (molar concentration).
With `CC(C)C[C@@H](C=O)NC(=O)[C@H](Cc1c[nH]cn1)NC(=O)C(CC(=O)NCCc1ccccc1)Cc1cccc2ccccc12` (single isomer, unassigned) [N-[2-(1-naphthylmethyl)-3-(phenethylcarbamoyl)propionyl]-L-histidyl-L-leucinal (isomer A)], the pIC50 was 7.39. Same read-out and setting: as for `CC(C)C[C@@H](C=O)NC(=O)[C@H](Cc1c[nH]cn1)NC(=O)C(CCCCc1ccc2ccccc2c1)Cc1ccccc1` (stereo partly drawn) [N-[2-Benzyl-6-(2-naphthyl)hexanoyl]-L-histidyl-L-leucinal], the figure is 5.47; as for `CC(C)C[C@@H](CO)NC(=O)[C@H](Cc1c[nH]cn1)NC(=O)C(CNCCCc1ccccc1)Cc1cccc2ccccc12` (single isomer, unassigned) [N-[2-(1-naphthylmethyl)-3-(3-phenylpropylamino)propionyl]-L-histidyl-L-leucinol (isomer A)], 4.33; as for `CC(C)C[C@@H](C=O)NC(=O)[C@H](Cc1c[nH]cn1)NC(=O)C(CC=Cc1ccccc1)Cc1cccc2ccccc12` (mixture of isomers) [N-[(±)-2-(1-Naphthylmethyl)-5-phenyl-4-pentenoyl]-L-histidyl-L-leucinal], 6.66. With `CC(C)C[C@@H](CO)NC(=O)[C@H](Cc1c[nH]cn1)NC(=O)C(CCCOc1ccccc1)Cc1cccc2ccccc12` (mixture of isomers) [N-[(±)-2-(1-Naphthylmethyl)-5-phenoxyvaleryl]-L-histidyl-L-leucinol], the pIC50 is 4.59. Regarding `CC(C)C[C@@H](C=O)NC(=O)[C@H](Cc1c[nH]cn1)NC(=O)C(=Cc1ccccc1)CC(=O)NCc1cccc2ccccc12` [N-[2-Benzylidene-3-(1-naphthylmethylcarbamoyl)propionyl]-L-histidyl-L-leucinal], the pIC50 was 5.42. Same read-out and setting: under `CC(C)C[C@@H](CO)NC(=O)[C@H](Cc1c[nH]cn1)NC(=O)C(CCCc1ccccc1)Cc1cccc2ccccc12` (mixture of isomers) [N-[(±)-2-(1-Naphthylmethyl)-5-phenylvaleryl]-L-histidyl-L-leucinol] stands 4.89; under `CC(C)C[C@@H](CO)NC(=O)[C@H](Cc1c[nH]cn1)NC(=O)C(CC(=O)Nc1ccccc1)Cc1cccc2ccccc12` (single isomer, unassigned) [N-[2-(1-Naphthylmethyl)-3-(phenylcarbamoyl)propionyl]-L-histidyl-L-leucinol(isomer B)], 4.74. `CC(C)C[C@@H](C=O)NC(=O)[C@H](Cc1c[nH]cn1)NC(=O)C(CC(=O)NCc1cccc2ccccc12)Cc1ccccc1` (mixture of isomers) [N-[(±)-2-Benzyl-3-(1-naphthylmethylcarbamoyl)propionyl]-L-histidyl-L-leucinal]: the pIC50 is 5.14.

Turning to `CC(C)C[C@@H](CO)NC(=O)[C@H](Cc1c[nH]cn1)NC(=O)C(CCCCc1ccccc1)Oc1cccc2ccccc12` (mixture of isomers) [N-[(±)-2-(1-Naphthoxy)-6-phenylhexanoyl]-L-histidyl-L-leucinol], the pIC50 was 4.12. On to `CC(C)C[C@@H](C=O)NC(=O)[C@H](Cc1c[nH]cn1)NC(=O)C(Cc1ccccc1)C(=O)NCc1cccc2ccccc12` (mixture of isomers) [N-[(±)-2-(1-Naphthylmethylcarbamoyl)-3-phenylpropionyl]-L-histidyl-L-leucinal], for which the pIC50 was 5.09. Regarding `CC(C)C[C@@H](CO)NC(=O)[C@H](Cc1c[nH]cn1)NC(=O)C(CC(=O)NCCc1ccccc1)Cc1cccc2ccccc12` (single isomer, unassigned) [N-[2-(1-Naphthylmethyl)-3-(phenethylcarbamoyl)propionyl]-L-histidyl-L-leucinol], the pIC50 is 4.60. Take `CC(C)C[C@@H](CO)NC(=O)[C@H](Cc1c[nH]cn1)NC(=O)C(CC=Cc1ccccc1)Cc1cccc2ccccc12` (mixture of isomers) [N-[(±)-2-(1-Naphthylmethyl)-5-phenyl-4-pentenoyl]-L-histidyl-L-leucinol]: the pIC50 was 5.57. For `CC(C)C[C@@H](C=O)NC(=O)[C@H](Cc1c[nH]cn1)NC(=O)C(CCOCCc1ccccc1)Cc1cccc2ccccc12` (mixture of isomers) [N-[(±)-2-(1-Naphthylmethyl)-4-phenethoxybutyryl]-L-histidyl-L-leucinal], the pIC50 was 7.12.

On to `CC(C)C[C@@H](CO)NC(=O)[C@H](Cc1c[nH]cn1)NC(=O)C(CC(=O)Nc1ccccc1)Cc1cccc2ccccc12` (single isomer, unassigned) [N-[2-(1-Naphthylmethyl)-3-(phenylcarbamoyl)propionyl]-L-histidyl-L-leucinol(isomer A)], for which the pIC50 was 4.19.

As to `CC(C)C[C@@H](CO)NC(=O)[C@H](Cc1c[nH]cn1)NC(=O)C(=Cc1cccc2ccccc12)CC(=O)NCCc1ccccc1` [N-[2-(1-Naphthylmethylene)-3-(phenethylcarbamoyl)propionyl]-L-histidyl-L-leucinol], the pIC50 is 4.16. For the compound `CC(C)C[C@@H](C=O)NC(=O)[C@H](Cc1c[nH]cn1)NC(=O)C(CCCCc1ccccc1)Cc1cccc2ccccc12` (stereo partly drawn) [N-[(+)-2-(1-Naphthylmethyl)-6-phenylhexanoyl]-L-histidyl-L-leucinal], the pIC50 was 7.06.

As for `CC(C)C[C@@H](CO)NC(=O)[C@H](Cc1c[nH]cn1)NC(=O)C(CC(=O)NCCc1ccccc1)Cc1cccc2ccccc12` (single isomer, unassigned) [N-[2-(1-naphthylmethyl)-3-(phenethylcarbamoyl)propionyl]-L-histidyl-L-leucinol (isomer A)], the pIC50 is 5.13. As to `CC(C)C[C@@H](CO)NC(=O)[C@H](Cc1c[nH]cn1)NC(=O)C(CC(=O)NCc1ccccc1)Cc1cccc2ccccc12` (single isomer, unassigned) [N-[3-(Benzylcarbamoyl)-2-(1-naphthylmethyl)propionyl]-L-histidyl-L-leucinol(isomer B)], the pIC50 was 4.57. Same read-out and setting: under `CC(C)C[C@@H](C=O)NC(=O)[C@H](Cc1c[nH]cn1)NC(=O)C(CC(=O)NCc1ccccc1)Cc1cccc2ccccc12` (single isomer, unassigned) [N-[3-(Benzylcarbamoyl)-2-(1-naphthylmethyl)propionyl]-L-histidyl-L-leucinal(isomer A)] stands 7.15; under `CC(C)C[C@@H](CO)NC(=O)[C@H](Cc1c[nH]cn1)NC(=O)C(CC=CC=Cc1ccccc1)Cc1cccc2ccccc12` (mixture of isomers) [N-[(±)-2-(1-Naphthylmethyl)-7-phenyl-4,6-heptadienoyl]-L-histidyl-L-leucinol], 4.92. Still for that read-out and setting: as for `CC(C)C[C@@H](CO)NC(=O)[C@H](Cc1c[nH]cn1)NC(=O)C(CC(=O)NCc1ccccc1)Cc1cccc2ccccc12` (single isomer, unassigned) [N-[3-(Benzylcarbamoyl)-2-(1-naphthylmethyl)propionyl]-L-histidyl-L-leucinol(isomer A)], the figure is 4.72; as for `CC(C)C[C@@H](C=O)NC(=O)[C@H](Cc1c[nH]cn1)NC(=O)C(CC(=O)NCc1ccccc1)Cc1cccc2ccccc12` (single isomer, unassigned) [N-[3-(Benzylcarbamoyl)-2-(1-naphthylmethyl)propionyl]-L-histidyl-L-leucinal(isomer B)], 5.31; as for `CC(C)C[C@@H](C=O)NC(=O)[C@H](Cc1c[nH]cn1)NC(=O)C(CCCCc1ccccc1)Cc1cccc2ccccc12` (stereo partly drawn) [N-[(-)-2-(1-Naphthylmethyl)-6-phenylhexanoyl]-L-histidyl-L-leucinal], 6.34. Take `CC(C)C[C@@H](C=O)NC(=O)[C@H](Cc1c[nH]cn1)NC(=O)C(CC=CC=Cc1ccccc1)Cc1cccc2ccccc12` (mixture of isomers) [N-[(±)-2-(1-Naphthylmethyl)-7-phenyl-4,6-heptadienoyl]-L-histidyl-L-leucinal]: the pIC50 was 6.36. The same measure, in the same setting: as for `CC(C)C[C@@H](C=O)NC(=O)[C@H](Cc1c[nH]cn1)NC(=O)C(CCCC(=O)c1ccccc1)Cc1cccc2ccccc12` (mixture of isomers) [N-[(±)-5-Benzoyl-2-(1-naphthylmethyl)valeryl]-L-histidyl-L-leucinal], the figure is 6.72; as for `CC(C)C[C@@H](CO)NC(=O)[C@H](Cc1c[nH]cn1)NC(=O)C(CC(=O)NCCc1c[nH]c2ccccc12)Cc1cccc2ccccc12` (single isomer, unassigned) [N-{3-[2-(3-Indolyl)ethylcarbamoyl]-2-(1-naphthylmethyl)propionyl}-L-histidyl-L-leucinol (isomer A)], 4.55.
